How the values were obtained:
[1] = WT Cell Cytotoxicity (CellTiter-Glo); details: human, HL-60 cells (BET-dependent AML cell line)
sst (non-selective) = experiment: CEREP ExpresSProfile; assay type: binding; details: 1 µM
HIPK2 = HIPK2 (Homo sapiens, UniProt Q9H2X6); experiment: kinase Express Screen; assay type: biochemical
Method: (§1) Kinase Remaining activity
(§2) Table S9. 9-ME-1 Kinase Screen
(§3) Activity of panel of human kinases following treatment with 1 µM (2R, 3S)-7. Dundee MRC-PPU Express Screen
(§4) (http://www.kinase-screen.mrc.ac.uk/services/express-screen)

EPH-A2 = EPH-A2 (Homo sapiens, UniProt P29317); experiment: kinase Express Screen; assay type: biochemical
Method: as §1, §2, §3, §4

IRAK4 = IRAK4 (Homo sapiens, UniProt Q9NWZ3); experiment: kinase Express Screen; assay type: biochemical
Method: as §1, §2, §3, §4

CK1δ = CK1δ (Homo sapiens, UniProt P48730); experiment: kinase Express Screen; assay type: biochemical
Method: as §1, §2, §3, §4

SYK = SYK (Homo sapiens, UniProt P43405); experiment: kinase Express Screen; assay type: biochemical
Method: as §1, §2, §3, §4

Lck = Lck (Homo sapiens, UniProt P06239); experiment: kinase Express Screen; assay type: biochemical
Method: as §1, §2, §3, §4

TTK = TTK (Homo sapiens, UniProt P33981); experiment: kinase Express Screen; assay type: biochemical
Method: as §1, §2, §3, §4

AMPK (hum) = AMPK (hum) (Homo sapiens, UniProt Q13131); experiment: kinase Express Screen; assay type: biochemical
Method: as §1, §2, §3, §4

MST2 = MST2 (Homo sapiens, UniProt Q13188); experiment: kinase Express Screen; assay type: biochemical
Method: as §1, §2, §3, §4

S6K1 = S6K1 (Homo sapiens, UniProt P23443); experiment: kinase Express Screen; assay type: biochemical
Method: as §1, §2, §3, §4

MARK3 = MARK3 (Homo sapiens, UniProt P27448); experiment: kinase Express Screen; assay type: biochemical
Method: as §1, §2, §3, §4

NEK6 = NEK6 (Homo sapiens, UniProt Q9HC98); experiment: kinase Express Screen; assay type: biochemical
Method: as §1, §2, §3, §4

VEG-FR = VEG-FR (Homo sapiens, UniProt P17948); experiment: kinase Express Screen; assay type: biochemical
Method: as §1, §2, §3, §4

ROCK 2 = ROCK 2 (Homo sapiens, UniProt O75116); experiment: kinase Express Screen; assay type: biochemical
Method: as §1, §2, §3, §4

SmMLCK = SmMLCK (Homo sapiens, UniProt Q15746); experiment: kinase Express Screen; assay type: biochemical
Method: as §1, §2, §3, §4

SRPK1 = SRPK1 (Homo sapiens, UniProt Q96SB4); experiment: kinase Express Screen; assay type: biochemical
Method: as §1, §2, §3, §4

SGK1 = SGK1 (Homo sapiens, UniProt O00141); experiment: kinase Express Screen; assay type: biochemical
Method: as §1, §2, §3, §4

PKD1 = PKD1 (Homo sapiens, UniProt Q15139); experiment: kinase Express Screen; assay type: biochemical
Method: as §1, §2, §3, §4

TrkA = TrkA (Homo sapiens, UniProt P04629); experiment: kinase Express Screen; assay type: biochemical
Method: as §1, §2, §3, §4

MLK3 = MLK3 (Homo sapiens, UniProt Q16584); experiment: kinase Express Screen; assay type: biochemical
Method: as §1, §2, §3, §4

JNK1 = JNK1 (Homo sapiens, UniProt P45983); experiment: kinase Express Screen; assay type: biochemical
Method: as §1, §2, §3, §4

BTK = BTK (Homo sapiens, UniProt Q06187); experiment: kinase Express Screen; assay type: biochemical
Method: as §1, §2, §3, §4

JAK3 = JAK3 (Homo sapiens, UniProt P52333); experiment: kinase Express Screen; assay type: biochemical
Method: as §1, §2, §3, §4

PKBa = PKBa (Homo sapiens, UniProt P31749); experiment: kinase Express Screen; assay type: biochemical
Method: as §1, §2, §3, §4

PRK2 = PRK2 (Homo sapiens, UniProt Q16513); experiment: kinase Express Screen; assay type: biochemical
Method: as §1, §2, §3, §4

Aurora B = Aurora B (Homo sapiens, UniProt Q96GD4); experiment: kinase Express Screen; assay type: biochemical
Method: as §1, §2, §3, §4

HER4 = HER4 (Homo sapiens, UniProt Q15303); experiment: kinase Express Screen; assay type: biochemical
Method: as §1, §2, §3, §4

PKA = PKA (Homo sapiens, UniProt P17612); experiment: kinase Express Screen; assay type: biochemical
Method: as §1, §2, §3, §4

p38a MAPK = p38a MAPK (Homo sapiens, UniProt Q16539); experiment: kinase Express Screen; assay type: biochemical
Method: as §1, §2, §3, §4

TBK1 = TBK1 (Homo sapiens, UniProt Q9UHD2); experiment: kinase Express Screen; assay type: biochemical
Method: as §1, §2, §3, §4

LKB1 = LKB1 (Homo sapiens, UniProt Q15831); experiment: kinase Express Screen; assay type: biochemical
Method: as §1, §2, §3, §4

GSK3b = GSK3b (Homo sapiens, UniProt P49841); experiment: kinase Express Screen; assay type: biochemical
Method: as §1, §2, §3, §4

PKCa = PKCa (Homo sapiens, UniProt P17252); experiment: kinase Express Screen; assay type: biochemical
Method: as §1, §2, §3, §4

CHK2 = CHK2 (Homo sapiens, UniProt O96017); experiment: kinase Express Screen; assay type: biochemical
Method: as §1, §2, §3, §4

DYRK1A = DYRK1A (Homo sapiens, UniProt Q13627); experiment: kinase Express Screen; assay type: biochemical
Method: as §1, §2, §3, §4

MSK1 = MSK1 (Homo sapiens, UniProt O75582); experiment: kinase Express Screen; assay type: biochemical
Method: as §1, §2, §3, §4

PIM1 = PIM1 (Homo sapiens, UniProt P11309); experiment: kinase Express Screen; assay type: biochemical
Method: as §1, §2, §3, §4

MKK1 = MKK1 (Homo sapiens, UniProt Q02750); experiment: kinase Express Screen; assay type: biochemical
Method: as §1, §2, §3, §4

5-HT3 (h) = 5-HT3 (h) (Homo sapiens, UniProt P46098); experiment: CEREP ExpresSProfile; details: read-out: Mean % of control specific binding (±SD)
Source text: (§5) Receptor Reference Compound Mean % of control specific
Receptor & Ion-Channel Screening
CEREP ExpresSProfile panel

5-HT2A (h) = 5-HT2A (h) (Homo sapiens, UniProt P28223); experiment: CEREP ExpresSProfile; details: read-out: Mean % of control specific binding (±SD)
Source text: as §5
Receptor & Ion-Channel Screening
CEREP ExpresSProfile panel

[2] = target: GFP-labelled WT BRD4 in U2OS cells (Homo sapiens, UniProt O60885); experiment: FRAP; details: 200 nM, 2 μM SAHA
BRDT BD1 WT = BRDT BD1 WT (Homo sapiens, UniProt Q58F21); experiment: competitive AlphaLISA; assay type: binding

Sequence of PKD1 (Q15139 whole entry): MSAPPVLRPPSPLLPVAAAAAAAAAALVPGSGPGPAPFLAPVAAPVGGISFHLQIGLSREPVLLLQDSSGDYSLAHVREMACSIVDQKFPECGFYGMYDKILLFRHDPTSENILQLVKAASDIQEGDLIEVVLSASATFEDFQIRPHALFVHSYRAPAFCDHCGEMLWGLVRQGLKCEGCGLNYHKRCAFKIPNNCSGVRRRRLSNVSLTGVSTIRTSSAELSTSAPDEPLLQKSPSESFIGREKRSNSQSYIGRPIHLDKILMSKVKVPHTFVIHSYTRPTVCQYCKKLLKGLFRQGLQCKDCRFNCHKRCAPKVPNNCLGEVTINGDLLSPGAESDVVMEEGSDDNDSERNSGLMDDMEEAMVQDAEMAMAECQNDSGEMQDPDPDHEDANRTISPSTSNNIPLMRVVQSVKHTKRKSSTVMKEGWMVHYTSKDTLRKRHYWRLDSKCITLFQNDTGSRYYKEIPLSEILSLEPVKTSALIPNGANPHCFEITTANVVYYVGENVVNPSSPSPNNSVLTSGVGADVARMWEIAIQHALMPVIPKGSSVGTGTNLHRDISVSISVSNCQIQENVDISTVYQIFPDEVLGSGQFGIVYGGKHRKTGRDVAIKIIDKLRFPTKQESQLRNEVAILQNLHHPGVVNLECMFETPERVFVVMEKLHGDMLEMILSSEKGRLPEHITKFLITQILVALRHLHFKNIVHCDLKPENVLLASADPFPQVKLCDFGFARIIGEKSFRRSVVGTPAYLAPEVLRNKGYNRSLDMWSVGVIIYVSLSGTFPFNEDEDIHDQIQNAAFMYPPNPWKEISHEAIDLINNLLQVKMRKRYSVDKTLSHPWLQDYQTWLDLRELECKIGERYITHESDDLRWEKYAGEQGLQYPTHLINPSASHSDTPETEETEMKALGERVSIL
Sequence of PKBa (P31749 whole entry): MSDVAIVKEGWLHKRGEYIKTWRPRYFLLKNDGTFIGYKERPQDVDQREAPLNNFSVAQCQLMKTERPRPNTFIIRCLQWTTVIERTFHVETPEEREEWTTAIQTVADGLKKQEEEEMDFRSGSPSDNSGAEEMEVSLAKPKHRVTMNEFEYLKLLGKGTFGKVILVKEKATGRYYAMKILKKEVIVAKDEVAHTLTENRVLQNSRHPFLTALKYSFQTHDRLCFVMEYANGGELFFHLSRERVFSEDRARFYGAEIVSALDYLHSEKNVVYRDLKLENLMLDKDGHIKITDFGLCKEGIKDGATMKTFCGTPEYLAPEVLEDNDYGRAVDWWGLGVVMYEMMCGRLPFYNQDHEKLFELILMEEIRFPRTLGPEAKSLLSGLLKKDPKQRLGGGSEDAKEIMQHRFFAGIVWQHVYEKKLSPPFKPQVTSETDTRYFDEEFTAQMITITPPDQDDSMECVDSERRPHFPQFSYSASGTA
Sequence of IRAK4 (Q9NWZ3 whole entry): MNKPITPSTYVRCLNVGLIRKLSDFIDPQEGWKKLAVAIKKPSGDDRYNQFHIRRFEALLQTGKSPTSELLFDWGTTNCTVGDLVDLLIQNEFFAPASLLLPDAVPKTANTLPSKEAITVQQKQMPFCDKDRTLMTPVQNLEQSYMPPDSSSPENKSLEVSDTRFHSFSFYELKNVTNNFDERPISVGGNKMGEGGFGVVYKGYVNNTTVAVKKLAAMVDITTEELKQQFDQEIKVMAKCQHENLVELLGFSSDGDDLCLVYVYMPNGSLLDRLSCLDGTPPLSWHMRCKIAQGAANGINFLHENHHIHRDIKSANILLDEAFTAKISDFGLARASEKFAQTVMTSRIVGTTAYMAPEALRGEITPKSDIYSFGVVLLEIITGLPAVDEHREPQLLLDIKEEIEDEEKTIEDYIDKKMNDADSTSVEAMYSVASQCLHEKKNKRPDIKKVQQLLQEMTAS
Sequence of MARK3 (P27448 whole entry): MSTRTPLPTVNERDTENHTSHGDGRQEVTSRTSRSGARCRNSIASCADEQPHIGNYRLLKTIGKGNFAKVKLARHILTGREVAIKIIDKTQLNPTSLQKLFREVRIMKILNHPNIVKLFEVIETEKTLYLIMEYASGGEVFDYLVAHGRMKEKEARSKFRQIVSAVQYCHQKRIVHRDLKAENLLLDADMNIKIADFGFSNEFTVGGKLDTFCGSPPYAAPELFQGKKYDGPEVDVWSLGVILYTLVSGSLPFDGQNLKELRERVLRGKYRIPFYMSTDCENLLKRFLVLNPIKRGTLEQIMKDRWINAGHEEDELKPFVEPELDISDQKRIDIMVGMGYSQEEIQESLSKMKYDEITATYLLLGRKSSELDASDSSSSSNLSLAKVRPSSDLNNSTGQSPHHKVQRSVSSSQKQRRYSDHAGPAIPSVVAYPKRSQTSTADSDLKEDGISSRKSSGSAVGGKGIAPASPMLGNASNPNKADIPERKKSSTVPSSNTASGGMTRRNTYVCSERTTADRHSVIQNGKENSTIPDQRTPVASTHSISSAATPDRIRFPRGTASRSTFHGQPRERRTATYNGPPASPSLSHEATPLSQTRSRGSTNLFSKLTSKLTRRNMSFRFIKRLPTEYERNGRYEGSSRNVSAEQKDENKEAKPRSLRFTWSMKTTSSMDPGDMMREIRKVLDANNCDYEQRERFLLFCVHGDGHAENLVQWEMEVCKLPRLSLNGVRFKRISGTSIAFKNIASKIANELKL
Sequence of VEG-FR (P17948 27-1338): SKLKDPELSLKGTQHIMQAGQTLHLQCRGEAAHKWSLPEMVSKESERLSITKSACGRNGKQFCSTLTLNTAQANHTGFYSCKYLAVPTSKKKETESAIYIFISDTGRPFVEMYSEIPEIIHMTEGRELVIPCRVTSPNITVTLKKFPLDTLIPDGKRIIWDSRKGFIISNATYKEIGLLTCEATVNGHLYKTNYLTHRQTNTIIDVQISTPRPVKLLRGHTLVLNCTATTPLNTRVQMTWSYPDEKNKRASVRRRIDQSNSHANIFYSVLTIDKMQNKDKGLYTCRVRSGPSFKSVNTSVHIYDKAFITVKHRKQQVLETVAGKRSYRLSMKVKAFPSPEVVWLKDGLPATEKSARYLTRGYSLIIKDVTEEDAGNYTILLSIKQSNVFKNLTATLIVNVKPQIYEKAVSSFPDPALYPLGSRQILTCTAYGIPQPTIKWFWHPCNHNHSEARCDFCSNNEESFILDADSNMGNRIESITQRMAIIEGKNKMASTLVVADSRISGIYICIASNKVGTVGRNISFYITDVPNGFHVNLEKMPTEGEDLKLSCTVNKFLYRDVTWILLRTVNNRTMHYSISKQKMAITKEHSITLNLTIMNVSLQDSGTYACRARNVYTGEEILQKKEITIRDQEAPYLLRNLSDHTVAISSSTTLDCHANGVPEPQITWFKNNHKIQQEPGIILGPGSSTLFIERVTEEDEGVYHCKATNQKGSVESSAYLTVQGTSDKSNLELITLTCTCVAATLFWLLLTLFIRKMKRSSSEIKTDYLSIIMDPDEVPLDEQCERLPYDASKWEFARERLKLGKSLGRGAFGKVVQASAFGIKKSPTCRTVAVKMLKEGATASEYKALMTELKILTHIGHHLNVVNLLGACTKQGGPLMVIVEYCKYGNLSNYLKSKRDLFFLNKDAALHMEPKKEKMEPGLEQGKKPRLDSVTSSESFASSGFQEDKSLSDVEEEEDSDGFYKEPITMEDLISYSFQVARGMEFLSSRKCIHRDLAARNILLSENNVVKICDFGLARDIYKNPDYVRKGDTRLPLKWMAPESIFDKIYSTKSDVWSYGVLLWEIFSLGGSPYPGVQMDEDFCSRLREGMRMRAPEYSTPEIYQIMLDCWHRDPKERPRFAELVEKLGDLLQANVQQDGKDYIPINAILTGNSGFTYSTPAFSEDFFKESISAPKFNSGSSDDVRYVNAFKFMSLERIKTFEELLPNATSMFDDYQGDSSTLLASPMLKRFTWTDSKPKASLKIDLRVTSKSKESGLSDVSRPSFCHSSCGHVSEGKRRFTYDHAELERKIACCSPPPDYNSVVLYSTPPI
Sequence of NEK6 (Q9HC98 whole entry): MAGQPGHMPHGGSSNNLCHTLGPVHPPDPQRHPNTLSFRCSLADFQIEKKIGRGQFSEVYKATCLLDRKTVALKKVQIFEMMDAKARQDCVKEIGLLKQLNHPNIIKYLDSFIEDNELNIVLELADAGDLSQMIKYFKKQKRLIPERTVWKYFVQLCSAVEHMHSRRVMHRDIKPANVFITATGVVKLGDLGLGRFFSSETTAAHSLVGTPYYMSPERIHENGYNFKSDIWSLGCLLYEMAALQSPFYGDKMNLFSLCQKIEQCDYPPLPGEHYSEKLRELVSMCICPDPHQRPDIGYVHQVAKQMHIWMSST
Sequence of MST2 (Q13188 whole entry): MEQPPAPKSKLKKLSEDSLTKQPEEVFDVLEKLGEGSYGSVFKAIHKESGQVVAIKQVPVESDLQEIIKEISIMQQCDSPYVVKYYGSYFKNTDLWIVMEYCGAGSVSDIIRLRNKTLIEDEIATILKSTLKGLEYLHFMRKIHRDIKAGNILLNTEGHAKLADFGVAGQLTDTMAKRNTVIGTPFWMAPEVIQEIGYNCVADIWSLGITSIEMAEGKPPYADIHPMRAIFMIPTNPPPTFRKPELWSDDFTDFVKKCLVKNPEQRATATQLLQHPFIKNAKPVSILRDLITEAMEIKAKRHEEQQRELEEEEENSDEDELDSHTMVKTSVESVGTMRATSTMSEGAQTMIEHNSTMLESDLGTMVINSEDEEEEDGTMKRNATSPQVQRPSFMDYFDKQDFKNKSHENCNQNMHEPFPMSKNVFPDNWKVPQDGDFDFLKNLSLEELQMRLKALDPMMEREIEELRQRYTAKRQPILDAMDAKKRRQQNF
Sequence of PIM1 (P11309 whole entry): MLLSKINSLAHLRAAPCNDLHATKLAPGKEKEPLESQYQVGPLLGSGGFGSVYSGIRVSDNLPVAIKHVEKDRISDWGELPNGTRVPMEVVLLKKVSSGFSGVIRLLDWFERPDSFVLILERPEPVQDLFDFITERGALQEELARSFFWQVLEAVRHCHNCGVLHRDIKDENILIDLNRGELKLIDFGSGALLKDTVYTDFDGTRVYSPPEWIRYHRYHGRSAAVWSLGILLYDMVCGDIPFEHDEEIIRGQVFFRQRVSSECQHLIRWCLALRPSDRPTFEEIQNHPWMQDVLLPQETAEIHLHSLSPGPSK

## COC(=O)[C@H](C)[C@@H]1N=C(c2ccc(Cl)cc2)c2ccc(OC)cc2-n2c(C)nnc21 [(2R,3S)-7]
[1]
  CC50 at 48 h: > 5.01 µM
Sst (non-selective)
  Mean % of control specific binding (±SD): 108 (6) %
HIPK2
  remaining activity at 1 µM: 99%
EPH-A2
  remaining activity at 1 µM: 86%
IRAK4
  remaining activity at 1 µM: 114%
CK1δ
  remaining activity at 1 µM: 93%
SYK
  remaining activity at 1 µM: 98%
Lck
  remaining activity at 1 µM: 86%
TTK
  remaining activity at 1 µM: 102%
AMPK (hum)
  remaining activity at 1 µM: 104%
MST2
  remaining activity at 1 µM: 118%
S6K1
  remaining activity at 1 µM: 93%
MARK3
  remaining activity at 1 µM: 94%
NEK6
  remaining activity at 1 µM: 109%
VEG-FR
  remaining activity at 1 µM: 89%
ROCK 2
  remaining activity at 1 µM: 88%
SmMLCK
  remaining activity at 1 µM: 112%
SRPK1
  remaining activity at 1 µM: 79%
SGK1
  remaining activity at 1 µM: 103%
PKD1
  remaining activity at 1 µM: 78%
TrkA
  remaining activity at 1 µM: 98%
MLK3
  remaining activity at 1 µM: 100%
JNK1
  remaining activity at 1 µM: 89%
BTK
  remaining activity at 1 µM: 96%
JAK3
  remaining activity at 1 µM: 95%
PKBa
  remaining activity at 1 µM: 95%
PRK2
  remaining activity at 1 µM: 100%
Aurora B
  remaining activity at 1 µM: 94%
HER4
  remaining activity at 1 µM: 114%
PKA
  remaining activity at 1 µM: 92%
p38a MAPK
  remaining activity at 1 µM: 101%
TBK1
  remaining activity at 1 µM: 98%
LKB1
  remaining activity at 1 µM: 91%
GSK3b
  remaining activity at 1 µM: 95%
PKCa
  remaining activity at 1 µM: 96%
CHK2
  remaining activity at 1 µM: 107%
DYRK1A
  remaining activity at 1 µM: 80%
MSK1
  remaining activity at 1 µM: 94%
PIM1
  remaining activity at 1 µM: 106%
MKK1
  remaining activity at 1 µM: 89%
5-HT3 (h)
  remaining activity at 1 µM: 96%
5-HT2A (h)
  remaining activity at 1 µM: 100%
[2]
  blockade of WT BRD4 (FRAP): no statistically significant blockade

## CC[C@@H](C(=O)OC)[C@@H]1N=C(c2ccc(Cl)cc2)c2ccc(OC)cc2-n2c(C)nnc21 (racemic) [Compound 8]
BRDT BD1 WT
  IC50: 15.8 µM
